Laboratory results published in US20190137505A1 (THE ARIZONA BOARD OF REGENTS ON BEHALF OF THE UNIVERSITY OF …, priority 2015, published 2019).

Tests used:
HSA drug site I = target: T1, HSA drug site I (Homo sapiens, UniProt P02768); assay: Prodan displacement assay; format: binding; details: prodan-HSA 75 μM; 30 min; fluorescence 465 nm emission
T1 construct: purchased Sigma-Aldrich A3782
Method: A solution of human serum albumin (HSA) (20 ml at 10 mg/ml) in 1×PBS pH 7.4 was prepared. A slurry (10 ml) of Lipidex-1000 in methanol was buffer exchanged into 1×PBS and the buffer decanted from the aqueous slurry. The HSA solution was added to the slurry and the mixture was rotated at room temperature for 30 min. The Lipidex slurry was completely removed from HSA by plunging through a 0.22 μm filter using a 60 ml syringe. Prodan (25 mg) was dissolved in of 40% ethanol, 60% methanol (5 ml at a final concentration is 5 mg/ml). A portion (10 ml) of delipidated HSA (10 mg/ml) was incubated with 666.7 μl of the prodan solution (1:10 molar ratio HSA:prodan), and this mixture was rotated at room temperature for 30 minutes. The HSA-prodan mixture was placed on dry ice and acetone precipitated by adding 40 ml of acetone at −20° C., which was mixed and centrifuged at 3000×g for 10 min to pellet the precipitated HSA-prodan. Two additional washes of cold acetone were used to remove any free prodan. The HSA pellet was brought to 10 ml with PBS and mixed and resuspended.
A 2-fold serial dilution of MG in 1×PBS pH 7.4 was prepared starting from a stock solution of 10 mM. […] An aliquot (300 μl) of each reaction was read using a Gemini XPS Fluorescence Microplate Reader (Molecular Devices) in endpoint mode with 360 nm excitation, 420 nm filter cut-off, and 465 nm emission.

Pg = target: T2, Pg (Homo sapiens, UniProt P00747); assay: Two-dimensional gel electrophoresis of MG-modified Pg (isoelectric point shift); format: physicochemical; details: 24-hr 500 μM MG; 4-7 pH isoelectric focusing strip
T2 construct: Glu-Pg, uPA, tPA, fibrinogen, and chromogenic substrate for Pn were purchased from Molecular Innovations (Novi, Mich.); purchased Molecular Innovations (Novi, Mich.)
T2 sequence (P00747 20-810 limits assumed): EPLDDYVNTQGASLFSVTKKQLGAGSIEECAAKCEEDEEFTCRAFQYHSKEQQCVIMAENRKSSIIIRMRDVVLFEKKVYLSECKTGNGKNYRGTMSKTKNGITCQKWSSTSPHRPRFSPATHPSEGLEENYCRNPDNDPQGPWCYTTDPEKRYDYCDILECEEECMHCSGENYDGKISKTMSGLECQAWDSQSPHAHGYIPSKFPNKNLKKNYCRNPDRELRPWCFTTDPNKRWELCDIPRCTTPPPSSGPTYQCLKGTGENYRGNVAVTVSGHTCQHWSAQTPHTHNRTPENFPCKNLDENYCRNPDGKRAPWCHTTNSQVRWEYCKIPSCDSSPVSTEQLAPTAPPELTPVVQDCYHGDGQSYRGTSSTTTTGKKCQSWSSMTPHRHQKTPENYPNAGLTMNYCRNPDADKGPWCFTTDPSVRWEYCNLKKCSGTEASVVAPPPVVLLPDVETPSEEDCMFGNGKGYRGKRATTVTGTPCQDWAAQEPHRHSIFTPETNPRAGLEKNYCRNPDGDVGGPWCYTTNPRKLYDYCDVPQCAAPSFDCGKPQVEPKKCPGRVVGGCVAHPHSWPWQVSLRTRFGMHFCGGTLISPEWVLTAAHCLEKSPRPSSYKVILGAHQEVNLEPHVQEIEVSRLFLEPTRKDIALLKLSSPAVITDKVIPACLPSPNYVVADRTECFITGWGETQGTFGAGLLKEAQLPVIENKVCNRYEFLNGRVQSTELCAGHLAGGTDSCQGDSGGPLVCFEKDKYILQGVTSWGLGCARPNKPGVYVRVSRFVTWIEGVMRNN
Method: 10 μg Pg was incubated with MG (50-500 μM) in tris-buffered saline (TBS) for 24 hours at 37° C. Following modification, sample volumes were increased to 150 μL and placed in 5 kDa spin filters to reduce volume and remove excess MG from solution.
MG-modified (500 μM) and unmodified Pg control (same incubation conditions without MG) were added to 250 μL amount of rehydration buffer (6M urea, 2M thiourea, 2% CHAPS, 100 mM DTT, 0.5% 3-10 ampholytes) and 5 μL of 3-10 ampholytes (Bio-Rad). Sample rehydrated with a 13 cm 4-7 pH isoelectric focusing strip (GE Healthcare) overnight. Following rehydration, strips were placed in a Bio-Rad PROTEAN IEF Cell focusing instrument. Strips were first focused for 1 hour at 500 V, and then run at a maximum of 8,000V until the strips have reached a final total of 45,000 V/hrs at which point gels are held at 500V until removed. Focused strips were removed, reduced with DTT, cysteines carbamidomethylated with iodoacetamide, and run on a 4-20% gradient Criterion gel for 55 minutes at 200V. Gels were stained for stained according to manufacturer instructions with Imperial Blue Protein (ThermoScientific, Rockford, Ill.) and destained immediately with water. Gel bands were excised and trypsin digested.

glu-Pg = target: T3, glu-Pg (Homo sapiens, UniProt P00747); assay: Reaction of MG-modified Pg with activating enzymes (STK, tPA, uPA), SDS-PAGE and silver staining; format: biochemical; details: for Pn heavy and light chain bands versus unmodified gel: MG-modified Pg, higher concentration of MG, up to 90 minutes
T3 construct: Glu-Pg, uPA, tPA, fibrinogen, and chromogenic substrate for Pn were purchased from Molecular Innovations (Novi, Mich.); purchased Molecular Innovations (Novi, Mich.)
T3 sequence (P00747 20-810 limits assumed): as above
Method: Physiologically relevant concentrations (Chaplen et al., 1998, Ahmed et al., 2002) of MG were utilized for all LC-MS/MS, silver stain and enzyme inhibition analyses of Pg. glu-Pg (10 μg) was incubated with MG (1-500 μM) at 37° C. for 24 Hrs. Samples for STK assay were further processed before being resolved on a 12% SDS-PAGE gel following removal from 37° C. oven.
Upon removal from the 37° C. oven, Pg was buffer exchanged in a 3-kDa spin-filter (Amicon YM-3; Millipore)) to ensure the removal of MG from the sample. Following centrifugation, the volume of each sample was brought to 150 μL, and divided into five 30 μL samples for different incubations. STK (3U), tPA (100 nM) or uPA (100 nM) was used per sample. STK, tPA or uPA was incubated with Pg for 0, 5, 15, 30, 60, or 90 min. At the conclusion of the enzyme incubation, samples were denatured with 5% BME and heated for 5 minutes at 100° C. on a heat block prior to being resolved on a 12% SDS-PAGE gel.
Gels were stained using a modified version of the method from (Blum et al., 1987). Gel was fixed overnight in a solution of 50% MeOH, 12% glacial acetic acid, and 0.0185% formaldehyde. The gel was washed 2×20 min with 50% EtOH followed by 20 minutes with 30% EtOH. The gel was subjected to a pretreatment solution of 0.2 mg/ml of sodium thiosulfate (Na2S2O3) for 1 minute and was rinsed 3×20 sec with MilliQ H2O. […] Following two 20-second MilliQ H2O washes, the gel was immediately developed with a solution of 60 mg/ml Na2CO3, 4 μg/ml sodium thiosulfate, and 0.0185% formaldehyde until protein bands were visible. Upon acceptable staining progression, the gel was rinsed twice for 2 min with MilliQ H2O before the reaction was stopped with a solution of 50% MeOH and 12% glacial acetic acid. Gel was washed and stored in 50% MeOH. Gel was imaged with a ChemiDoc XRS System (BioRad).

T1 sequence (P02768 25-609): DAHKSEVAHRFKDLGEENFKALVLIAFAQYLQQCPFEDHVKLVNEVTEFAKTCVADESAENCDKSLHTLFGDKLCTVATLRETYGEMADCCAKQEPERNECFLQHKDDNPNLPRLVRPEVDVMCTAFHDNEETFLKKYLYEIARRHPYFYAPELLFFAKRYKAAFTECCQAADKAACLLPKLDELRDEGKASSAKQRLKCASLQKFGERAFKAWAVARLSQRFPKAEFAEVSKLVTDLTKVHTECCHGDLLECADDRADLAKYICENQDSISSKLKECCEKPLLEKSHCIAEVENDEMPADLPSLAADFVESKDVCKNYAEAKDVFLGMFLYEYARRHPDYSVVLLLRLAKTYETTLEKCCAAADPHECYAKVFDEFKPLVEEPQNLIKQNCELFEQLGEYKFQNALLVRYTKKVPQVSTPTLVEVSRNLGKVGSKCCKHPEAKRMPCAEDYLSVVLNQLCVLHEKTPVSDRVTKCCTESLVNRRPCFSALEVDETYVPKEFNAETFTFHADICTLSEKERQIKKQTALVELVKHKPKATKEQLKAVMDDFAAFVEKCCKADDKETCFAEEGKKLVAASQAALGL

Q: With `CC(=O)C=O` [MG, Methylglyoxal] as the molecule, how does the “MG concentrations that displace prodan from prodan-HSA complex” value (HSA drug site I) read?
A: The value was “above 300 μM”.

Q: What about the “pI of MG-modified Pg” value (Pg) of the same molecule?
A: The value was 5.8-6.7.

Q: And the “Activation of Pg by STK (cleavage products on silver-stained gel)” value (glu-Pg; 24-hr 100 μM MG-modified glu-Pg, STK 0 to 60 min)?
A: Its value is “inhibited”.

Q: What about the “Pn heavy and light chain bands versus unmodified gel” value (glu-Pg; tPA) of the same molecule?
A: Its value is “lesser amounts”.

Q: What about the “Pn heavy and light chain bands versus unmodified gel” value (glu-Pg; uPA) of the same molecule?
A: The value was “lesser amounts”.
